# According to US10195578B2, “Peptide library production method, peptide library, and screening method” (The University of Tokyo, priority 2010, dated 2019):
# Structures can show the parent of a compound that is named as a salt. Where a SMILES comes first, the peptide text is derived from it. Bridges are numbered along the chain shown (N, C = ends). Where no end group is shown, it is not given here. [ ]: non-standard residue; d: D form. The star is where a group is joined. Tfa = O=C(C(F)(F)F)*
# Biological target: T1, SIRT2 (Homo sapiens, UniProt Q8IXJ6)
# T1 sequence (Q8IXJ6 1-389): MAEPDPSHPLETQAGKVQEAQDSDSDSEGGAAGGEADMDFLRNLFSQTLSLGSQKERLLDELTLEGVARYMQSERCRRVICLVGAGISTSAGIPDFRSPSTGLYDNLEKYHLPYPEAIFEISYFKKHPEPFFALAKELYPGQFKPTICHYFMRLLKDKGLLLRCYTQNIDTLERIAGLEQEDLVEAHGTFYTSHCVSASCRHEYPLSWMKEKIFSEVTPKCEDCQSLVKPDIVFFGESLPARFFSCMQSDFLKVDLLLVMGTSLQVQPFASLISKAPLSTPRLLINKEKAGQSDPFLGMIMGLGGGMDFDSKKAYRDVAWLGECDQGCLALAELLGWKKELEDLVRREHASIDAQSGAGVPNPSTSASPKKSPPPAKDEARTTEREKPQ
# Experiment: Evaluation of inhibitory activity of peptides against SIRT2 (fluorescence-using system)
# Format: biochemical
# Conditions: peptide at 1 μM; FIG. 3
# Source text: In an evaluation system using fluorescence, the inhibitory activity of the selected peptides against SIRT2 was studied. More specifically, first, peptides to be deacetylated with SIRT2 each having, at both ends thereof, a fluorescent group and a quenching group is deacetylated by mixing with SIRT2. When the resulting peptides are reacted with protease that cleaves only a deacetylated peptide, the quenching group is dissociated from the fluorescent group of only the peptides deacetylated with SIRT2 and fluorescence is emitted. During this deacetylation reaction, presence of an inhibitor against SIRT2 retards the progress of deacetylation of the substrate peptide and fluorescence intensity obtained in the end decreases. This means that the inhibitory ability of the selected peptides can be evaluated by the intensity of fluorescence observed in the end.
row,Compound,"inhibitory ability against SIRT2 (activity of SIRT2, fluorescence intensity)"
1,"CC[C@H](C)[C@@H]1NC(=O)[C@H](CCCNC(=N)N)NC(=O)[C@H](Cc2ccc(O)cc2)NC(=O)[C@H](CC(=O)O)NC(=O)[C@H](Cc2c[nH]cn2)NC(=O)[C@@H](Cc2ccc(O)cc2)NC(=O)CSC[C@@H](C(=O)NCC(=O)N[C@@H](CO)C(=O)NCC(=O)N[C@@H](CO)C(=O)NCC(=O)N[C@@H](CO)C(=O)O)NC(=O)[C@@H]2CCCN2C(=O)[C@H](Cc2ccc(O)cc2)NC(=O)[C@H]([C@@H](C)O)NC(=O)[C@H](Cc2c[nH]cn2)NC(=O)[C@H](Cc2ccc(O)cc2)NC(=O)[C@H](CCCNC(=N)N)NC(=O)[C@H](CCCCNC(=O)C(F)(F)F)NC1=O [2D-08, XHDYRIZRYHTYPC] ({CH2CO}-[dY]HDYRIK(Tfa)RYHTYPCGSGSGS-OH; thioether N-14; N-terminus and C-terminus assumed)",completely suppressed the activity of SIRT2
2,"CC[C@H](C)[C@@H]1NC(=O)[C@H](CCCNC(=N)N)NC(=O)[C@H](Cc2ccccc2)NC(=O)[C@H](CC(N)=O)NC(=O)[C@H](CO)NC(=O)[C@H](Cc2ccc(O)cc2)NC(=O)CSC[C@@H](C(=O)NCC(=O)N[C@@H](CO)C(=O)NCC(=O)N[C@@H](CO)C(=O)NCC(=O)N[C@@H](CO)C(=O)O)NC(=O)[C@H](CO)NC(=O)[C@H](CO)NC(=O)[C@H](CC(N)=O)NC(=O)[C@H](CO)NC(=O)[C@H](Cc2ccc(O)cc2)NC(=O)[C@H](CCCNC(=N)N)NC(=O)[C@H](CCCCNC(=O)C(F)(F)F)NC1=O [2L-08, XSNFRIZRYSNSSC] ({CH2CO}-YSNFRIK(Tfa)RYSNSSCGSGSGS-OH; thioether N-14; N-terminus and C-terminus assumed)",completely suppressed the activity of SIRT2
3,XHTYHNZRRTNYYC [2L-05],completely suppressed the activity of SIRT2
4,"XYNTIIZTYGC ({CH2CO}-[dY]YNTIIK(trifluoroacetyl)TYGCGSGSGS; thioether N-11 (inferred)) [2D-03, thioether-cyclized peptide from NNC library; X = α-N-chloroacetyl-D-tyrosine, Z = ε-N-trifluoroacetyllysine]",completely suppressed the activity of SIRT2
